According to US8846669B2, “Oxazolidinone derivative and medical composition containing same” (Legochem Biosciences, Inc., priority 2011, dated 2014):
Values after ≈ are worked out from the molar mass of the structure shown. Like-named read-outs stand apart in the source and are kept apart here.

What was measured:
Test in all cases: In vitro antibacterial activity, broth microdilution MIC90
Type in all cases: cell-based
[1] = system: Staphylococcus epidermidis
Protocol: (§1) MIC90 was measured by broth microdilution method based on CLSI standards [reference: Clinical and Laboratory Standards Institute Document. (2000) Methods for Dilution Antimicrobial Susceptibility Test for Bacteria that Grow Aerobically-Fifth Edition: M7-A5. CLSI, Villanova, Pa.].
(§2) Activities of 12 strains including Staphylococcus aureus, Methicillin Resistant Staphylococcus aureus, Staphylococcus epidermidis, Methicillin Resistant Staphylococcus epidermidis, Enterococcus faecalis, Vancomycin Resistant Enterococcus faecalis, Linezolid and Vancomycin Resistant Enterococcus faecalis, Enterococcus faecium, Vancomycin Resistant Enterococcus faecium, Linezolid and Vancomycin Resistant Enterococcus faecium, and Moraxella catarrhalis, were measured, and results are shown in Table 1 below.
(§3) The final concentration of test material in the antibacterial test was from 0.063 μg/mL (minimum) to 128 μg/mL (maximum), and the final concentration of DMSO used as an excipient was 2.5% (V/V). Linezolid represented by Formula B below (manufactured by Pfizer) was used as a control and bacterial activity thereof was compared with those of the test materials.

[2] = system: Enterococcus faecium
Protocol: as §1, §2, §3

[3] = system: Methicillin Resistant Staphylococcus aureus
Protocol: as §1, §2, §3

[4] = system: Vancomycin Resistant Enterococcus faecalis
Protocol: as §1, §2, §3

[5] = system: Enterococcus faecalis
Protocol: as §1, §2, §3

[6] = system: Vancomycin Resistant Enterococcus faecium
Protocol: as §1, §2, §3

[7] = system: Methicillin Resistant Staphylococcus epidermidis
Protocol: as §1, §2, §3

[8] = system: Staphylococcus aureus
Protocol: as §1, §2, §3

[9] = system: Moraxella catarrhalis
Protocol: as §1, §2, §3

[10] = system: Linezolid and Vancomycin Resistant Enterococcus faecium (strain 11)
Protocol: as §1, §2, §3

[11] = system: Linezolid and Vancomycin Resistant Enterococcus faecalis; settings: for antibacterial activity against linezolid-resistant bacteria (in words): Enterococcus faecalis and Enterococcus faecium which are resistant to linezolid
Protocol: as §1, §2, §3

[12] = system: Linezolid and Vancomycin Resistant Enterococcus faecium (strain 10)
Protocol: as §1, §2, §3

[13] = Staphylococcus epidermidis, strain 3, S. epidermidis, read-out: MIC90
[14] = Enterococcus faecium, strain 8, E. faecium, read-out: MIC90
[15] = Staphylococcus aureus, strain 2, S. aureus MR, read-out: MIC90
[16] = Enterococcus faecalis, strain 6, E. faecalis VanA, read-out: MIC90
[17] = Enterococcus faecalis, strain 5, E. faecalis, read-out: MIC90
[18] = Enterococcus faecium, strain 9, E. faecium VanA, read-out: MIC90
[19] = Staphylococcus epidermidis, strain 4, S. epidermidis MR, read-out: MIC90
[20] = Staphylococcus aureus, strain 1, S. aureus, read-out: MIC90
[21] = Moraxella catarrhalis, strain 12, M. catarrhalis, read-out: MIC90
[22] = Enterococcus faecium, strain 11, E. faecium VanA LR, read-out: MIC90
[23] = Enterococcus faecalis, strain 7, E. faecalis VanA LR, read-out: MIC90
[24] = Enterococcus faecium, strain 10, E. faecium VanA LR, read-out: MIC90

| SMILES | MIC90 ([1]; Staphylococcus epidermidis) [µg/mL] | MIC90 ([2]; Enterococcus faecium) [µg/mL] | MIC90 ([3]; Staphylococcus aureus) [µg/mL] | MIC90 ([4]; Enterococcus faecalis) [µg/mL] | MIC90 ([5]; Enterococcus faecalis) [µg/mL] | MIC90 ([6]; Enterococcus faecium) [µg/mL] | MIC90 ([7]; Staphylococcus epidermidis) [µg/mL] | MIC90 ([8]; Staphylococcus aureus) [µg/mL] | MIC90 ([9]; Moraxella catarrhalis) [µg/mL] | MIC90 ([10]; Enterococcus faecium) [µg/mL] | MIC90 ([11]; Enterococcus faecalis) [µg/mL] | MIC90 ([12]; Enterococcus faecium) [µg/mL] | MIC90 [1, 13] [µg/mL] | MIC90 [2, 14] [µg/mL] | MIC90 [3, 15] [µg/mL] | MIC90 [4, 16] [µg/mL] | MIC90 [5, 17] [µg/mL] | MIC90 [6, 18] [µg/mL] | MIC90 [7, 19] [µg/mL] | MIC90 [8, 20] [µg/mL] | other results |
| --- | --- | --- | --- | --- | --- | --- | --- | --- | --- | --- | --- | --- | --- | --- | --- | --- | --- | --- | --- | --- | --- |
| O=C(C(O)CO)N1CCN(c2ccc(-c3ccc(N4C[C@H](Cn5ccnn5)OC4=O)cc3F)cn2)C=N1 (some centres unmarked) [Compound 37] | 1 (≈ 1.96 µM) | 1 (≈ 1.96 µM) | 1 (≈ 1.96 µM) | 1 (≈ 1.96 µM) | 1 (≈ 1.96 µM) | 1 (≈ 1.96 µM) | 2 (≈ 3.92 µM) | 0.5 (≈ 0.979 µM) | 8 (≈ 15.7 µM) | 8 (≈ 15.7 µM) | 8 (≈ 15.7 µM) | 8 (≈ 15.7 µM) |  |  |  |  |  |  |  |  |  |
| CC(=O)NC[C@H]1CN(c2ccc(-c3ccc(C4=NOCCN4)nc3)c(F)c2)C(=O)O1 [Compound 64] |  |  |  |  |  |  |  |  |  |  |  |  | 0.25 (≈ 0.605 µM) | 0.25 (≈ 0.605 µM) | 0.5 (≈ 1.21 µM) | 0.25 (≈ 0.605 µM) | 0.25 (≈ 0.605 µM) | 0.25 (≈ 0.605 µM) | 0.5 (≈ 1.21 µM) | 0.25 (≈ 0.605 µM) | MIC90 [9, 21]: 2 µg/mL (≈ 4.84 µM); MIC90 [10, 22]: 2 µg/mL (≈ 4.84 µM); MIC90 [11, 23]: 1 µg/mL (≈ 2.42 µM); MIC90 [12, 24]: 1 µg/mL (≈ 2.42 µM) |
| CC(=O)NC[C@H]1CN(c2ccc(N3CCOCC3)c(F)c2)C(=O)O1 [LZD, Linezolid, reference compound] |  |  |  |  |  |  |  |  |  |  |  |  | 1 (≈ 2.96 µM) | 1 (≈ 2.96 µM) | 2 (≈ 5.93 µM) | 2 (≈ 5.93 µM) | 2 (≈ 5.93 µM) | 2 (≈ 5.93 µM) | 2 (≈ 5.93 µM) | 1 (≈ 2.96 µM) | MIC90 [9, 21]: 8 µg/mL (≈ 23.7 µM); MIC90 [10, 22]: 64 µg/mL (≈ 190 µM); MIC90 [11, 23]: 32 µg/mL (≈ 94.9 µM); MIC90 [12, 24]: 32 µg/mL (≈ 94.9 µM) |
| O=C(CO)N1CCN(c2ccc(-c3ccc(N4C[C@H](COc5ccon5)OC4=O)cc3F)cn2)C=N1 [Compound 46] |  |  |  |  |  |  |  |  |  |  |  |  |  |  |  |  |  |  |  |  | MIC90 ([1]; strain 3, S. epidermidis): 0.5 µg/mL (≈ 1.01 µM); MIC90 ([2]; strain 8, E. faecium): 0.5 µg/mL (≈ 1.01 µM); MIC90 ([3]; strain 2, S. aureus MR): 0.5 µg/mL (≈ 1.01 µM); MIC90 ([4]; strain 6, E. faecalis VanA): 4 µg/mL (≈ 8.06 µM); MIC90 ([5]; strain 5, E. faecalis): 2 µg/mL (≈ 4.03 µM); MIC90 ([6]; strain 9, E. faecium VanA): 2 µg/mL (≈ 4.03 µM); MIC90 ([7]; strain 4, S. epidermidis MR): 32 µg/mL (≈ 64.5 µM); MIC90 ([8]; strain 1, S. aureus): 0.25 µg/mL (≈ 0.504 µM); MIC90 ([9]; strain 12, M. catarrhalis): >128 µg/mL; MIC90 ([10]; strain 11, E. faecium VanA LR): >128 µg/mL; MIC90 ([11]; strain 7, E. faecalis VanA LR): 128 µg/mL (≈ 258 µM); MIC90 ([12]; strain 10, E. faecium VanA LR): 128 µg/mL (≈ 258 µM) |
| O=C1O[C@@H](Cn2ccnn2)CN1c1ccc(-c2ccc(N3C=NNCC3)nc2)c(F)c1 [Compound 30] | 0.5 (≈ 1.18 µM) | 0.25 (≈ 0.592 µM) | 1 (≈ 2.37 µM) | 1 (≈ 2.37 µM) | 0.5 (≈ 1.18 µM) | 0.5 (≈ 1.18 µM) | 2 (≈ 4.73 µM) | 0.25 (≈ 0.592 µM) | 4 (≈ 9.47 µM) | 2 (≈ 4.73 µM) | 4 (≈ 9.47 µM) | 2 (≈ 4.73 µM) |  |  |  |  |  |  |  |  |  |
| Cl.O=C1O[C@@H](CNc2ccon2)CN1c1ccc(-c2ccc(N3C=NNCC3)nc2)c(F)c1 [Compound 39] |  |  |  |  |  |  |  |  |  |  |  |  |  |  |  |  |  |  |  |  | MIC90 ([1]; strain 3, S. epidermidis): 1 µg/mL; MIC90 ([2]; strain 8, E. faecium): 0.25 µg/mL; MIC90 ([3]; strain 2, S. aureus MR): 0.5 µg/mL; MIC90 ([4]; strain 6, E. faecalis VanA): 1 µg/mL; MIC90 ([5]; strain 5, E. faecalis): 0.5 µg/mL; MIC90 ([6]; strain 9, E. faecium VanA): 1 µg/mL; MIC90 ([7]; strain 4, S. epidermidis MR): 2 µg/mL; MIC90 ([8]; strain 1, S. aureus): 0.25 µg/mL; MIC90 ([9]; strain 12, M. catarrhalis): 2 µg/mL; MIC90 ([10]; strain 11, E. faecium VanA LR): 4 µg/mL; MIC90 ([11]; strain 7, E. faecalis VanA LR): 4 µg/mL; MIC90 ([12]; strain 10, E. faecium VanA LR): 4 µg/mL |
| COC(=O)NC[C@H]1CN(c2ccc(-c3ccc(C4=NOCCN4)nc3)c(F)c2)C(=O)O1 [Compound 65] |  |  |  |  |  |  |  |  |  |  |  |  | 0.5 (≈ 1.16 µM) | 0.5 (≈ 1.16 µM) | 0.5 (≈ 1.16 µM) | 0.5 (≈ 1.16 µM) | 0.5 (≈ 1.16 µM) | 0.5 (≈ 1.16 µM) | 1 (≈ 2.33 µM) | 0.5 (≈ 1.16 µM) | MIC90 [9, 21]: 2 µg/mL (≈ 4.66 µM); MIC90 [10, 22]: 4 µg/mL (≈ 9.32 µM); MIC90 [11, 23]: 4 µg/mL (≈ 9.32 µM); MIC90 [12, 24]: 4 µg/mL (≈ 9.32 µM) |
| CC(=O)NC[C@H]1CN(c2ccc(-c3ccc(N4C=NN(C)CC4)nc3)c(F)c2)C(=O)O1 [Compound 3] | 0.125 (≈ 0.293 µM) | 0.063 (≈ 0.148 µM) | 0.5 (≈ 1.17 µM) | 0.125 (≈ 0.293 µM) | 0.25 (≈ 0.586 µM) | 0.125 (≈ 0.293 µM) | 0.5 (≈ 1.17 µM) | 0.063 (≈ 0.148 µM) | 0.25 (≈ 0.586 µM) | 0.5 (≈ 1.17 µM) | 0.5 (≈ 1.17 µM) | 0.5 (≈ 1.17 µM) |  |  |  |  |  |  |  |  | antibacterial activity against linezolid-resistant bacteria (in words) [11]: very high antibacterial activity |
| CCN1CCN(c2ccc(-c3ccc(N4C[C@H](CNC(C)=O)OC4=O)cc3F)cn2)C=N1 [Compound 4] | 0.5 (≈ 1.14 µM) | 0.5 (≈ 1.14 µM) | 1 (≈ 2.27 µM) | 0.5 (≈ 1.14 µM) | 0.5 (≈ 1.14 µM) | 0.5 (≈ 1.14 µM) | 1 (≈ 2.27 µM) | 0.5 (≈ 1.14 µM) | 2 (≈ 4.54 µM) | 2 (≈ 4.54 µM) | 2 (≈ 4.54 µM) | 2 (≈ 4.54 µM) |  |  |  |  |  |  |  |  |  |
| O=C(CO)N1CCN(c2ccc(-c3ccc(N4C[C@H](Cn5ccnn5)OC4=O)cc3F)cn2)C=N1 [Compound 32] | 0.25 (≈ 0.52 µM) | 0.25 (≈ 0.52 µM) | 1 (≈ 2.08 µM) | 0.5 (≈ 1.04 µM) | 0.5 (≈ 1.04 µM) | 0.5 (≈ 1.04 µM) | 1 (≈ 2.08 µM) | 0.25 (≈ 0.52 µM) | 2 (≈ 4.16 µM) | 2 (≈ 4.16 µM) | 2 (≈ 4.16 µM) | 2 (≈ 4.16 µM) |  |  |  |  |  |  |  |  |  |
| CCN1C=NN(c2ccc(-c3ccc(N4C[C@H](CNC(C)=O)OC4=O)cc3F)cn2)CC1 [Compound 56] |  |  |  |  |  |  |  |  |  |  |  |  | 1 (≈ 2.27 µM) | 1 (≈ 2.27 µM) | 4 (≈ 9.08 µM) | 2 (≈ 4.54 µM) | 1 (≈ 2.27 µM) | 1 (≈ 2.27 µM) | 2 (≈ 4.54 µM) | 1 (≈ 2.27 µM) | MIC90 [9, 21]: 2 µg/mL (≈ 4.54 µM); MIC90 [10, 22]: 4 µg/mL (≈ 9.08 µM); MIC90 [11, 23]: 4 µg/mL (≈ 9.08 µM); MIC90 [12, 24]: 4 µg/mL (≈ 9.08 µM) |
| CC(=O)NC[C@H]1CN(c2ccc(-c3ccc(N4CCN(C(=O)CO)C=N4)nc3)c(F)c2)C(=O)O1 [Compound 54] | 0.125 (≈ 0.266 µM) | 0.25 (≈ 0.531 µM) | 0.5 (≈ 1.06 µM) | 0.063 (≈ 0.134 µM) | 0.063 (≈ 0.134 µM) | 0.063 (≈ 0.134 µM) | 0.5 (≈ 1.06 µM) | 0.25 (≈ 0.531 µM) | 1 (≈ 2.13 µM) | 0.5 (≈ 1.06 µM) | 0.5 (≈ 1.06 µM) | 0.5 (≈ 1.06 µM) |  |  |  |  |  |  |  |  | antibacterial activity against linezolid-resistant bacteria (in words) [11]: very high antibacterial activity |
